Measurements from ChEMBL document CHEMBL5653615 (J Biol Chem, 2013).

Legend:
[1] = molecular target: cAMP-dependent protein kinase (PKA) (Homo sapiens) (UniProt P22694+P17612+P22612); test: Inhibition of human PKA at 18.6 nM by HotSpot assay relative to control; type: protein assay
[2] = molecular target: Tyrosine-protein kinase HCK (Homo sapiens) (UniProt P08631); test: Inhibition of human HCK at 18.6 nM by HotSpot assay relative to control
[3] = molecular target: SRSF protein kinase 1 (Homo sapiens) (UniProt Q96SB4); test: Inhibition of human SRPK1 at 18.6 nM by HotSpot assay relative to control
[4] = molecular target: G protein-coupled receptor kinase 6 (Homo sapiens) (UniProt P43250); test: Inhibition of human GRK6 at 18.6 nM by HotSpot assay relative to control
[5] = molecular target: T1, Tyrosine-protein kinase receptor TYRO3 (Homo sapiens) (UniProt Q06418); test: Inhibition of human SKY at 1.82 nM by HotSpot assay relative to control
T1 sequence (whole entry): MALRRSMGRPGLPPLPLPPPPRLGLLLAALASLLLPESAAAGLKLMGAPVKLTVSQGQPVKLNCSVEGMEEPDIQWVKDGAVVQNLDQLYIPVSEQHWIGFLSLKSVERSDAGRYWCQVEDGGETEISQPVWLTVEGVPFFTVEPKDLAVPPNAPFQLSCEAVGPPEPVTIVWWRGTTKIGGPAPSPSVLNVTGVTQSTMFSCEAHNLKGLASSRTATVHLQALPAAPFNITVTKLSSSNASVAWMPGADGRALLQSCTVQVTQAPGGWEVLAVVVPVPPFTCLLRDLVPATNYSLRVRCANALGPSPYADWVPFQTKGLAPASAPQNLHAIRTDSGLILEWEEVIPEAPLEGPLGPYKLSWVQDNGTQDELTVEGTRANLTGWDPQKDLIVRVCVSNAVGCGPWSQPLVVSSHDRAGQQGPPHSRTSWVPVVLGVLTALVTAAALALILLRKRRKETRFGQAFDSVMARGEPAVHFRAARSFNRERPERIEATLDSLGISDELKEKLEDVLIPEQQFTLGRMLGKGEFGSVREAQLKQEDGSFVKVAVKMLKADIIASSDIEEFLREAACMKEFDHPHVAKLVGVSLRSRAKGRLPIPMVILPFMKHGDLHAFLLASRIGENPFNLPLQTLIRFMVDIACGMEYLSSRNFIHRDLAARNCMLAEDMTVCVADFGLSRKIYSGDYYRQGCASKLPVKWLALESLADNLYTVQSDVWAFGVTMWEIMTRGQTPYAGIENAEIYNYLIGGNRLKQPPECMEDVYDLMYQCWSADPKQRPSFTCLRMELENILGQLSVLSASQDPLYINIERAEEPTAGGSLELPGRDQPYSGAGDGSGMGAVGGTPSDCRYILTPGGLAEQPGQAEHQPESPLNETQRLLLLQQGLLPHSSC

[6] = molecular target: T2, Serine/threonine-protein kinase Sgk3 (Homo sapiens) (UniProt Q96BR1); test: Inhibition of human SGKL at 1.82 nM by HotSpot assay relative to control
T2 sequence (whole entry): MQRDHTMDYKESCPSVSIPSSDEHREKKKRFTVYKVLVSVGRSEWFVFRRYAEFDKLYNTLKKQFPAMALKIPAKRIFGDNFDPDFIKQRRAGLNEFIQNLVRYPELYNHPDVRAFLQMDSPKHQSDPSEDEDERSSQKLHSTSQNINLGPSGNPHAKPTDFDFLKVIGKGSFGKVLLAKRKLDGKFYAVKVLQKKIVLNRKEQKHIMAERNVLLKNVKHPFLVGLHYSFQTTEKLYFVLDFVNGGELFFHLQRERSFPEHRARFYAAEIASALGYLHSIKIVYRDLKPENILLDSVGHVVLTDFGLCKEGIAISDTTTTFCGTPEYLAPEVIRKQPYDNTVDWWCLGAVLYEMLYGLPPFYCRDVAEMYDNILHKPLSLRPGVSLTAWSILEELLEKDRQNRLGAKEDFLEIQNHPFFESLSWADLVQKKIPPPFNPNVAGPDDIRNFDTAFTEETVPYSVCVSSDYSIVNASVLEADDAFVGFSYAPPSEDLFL

[7] = molecular target: Cyclin-dependent kinase 5/CDK5 activator 1 (Homo sapiens) (UniProt Q00535+Q15078); test: Inhibition of human CDK5/p25 at 1.82 nM by HotSpot assay relative to control; type: protein-complex assay
[8] = molecular target: T3, Serine/threonine-protein kinase TAO1 (Homo sapiens) (UniProt Q7L7X3); test: Inhibition of human TAOK1 at 1.82 nM by HotSpot assay relative to control
T3 sequence (whole entry): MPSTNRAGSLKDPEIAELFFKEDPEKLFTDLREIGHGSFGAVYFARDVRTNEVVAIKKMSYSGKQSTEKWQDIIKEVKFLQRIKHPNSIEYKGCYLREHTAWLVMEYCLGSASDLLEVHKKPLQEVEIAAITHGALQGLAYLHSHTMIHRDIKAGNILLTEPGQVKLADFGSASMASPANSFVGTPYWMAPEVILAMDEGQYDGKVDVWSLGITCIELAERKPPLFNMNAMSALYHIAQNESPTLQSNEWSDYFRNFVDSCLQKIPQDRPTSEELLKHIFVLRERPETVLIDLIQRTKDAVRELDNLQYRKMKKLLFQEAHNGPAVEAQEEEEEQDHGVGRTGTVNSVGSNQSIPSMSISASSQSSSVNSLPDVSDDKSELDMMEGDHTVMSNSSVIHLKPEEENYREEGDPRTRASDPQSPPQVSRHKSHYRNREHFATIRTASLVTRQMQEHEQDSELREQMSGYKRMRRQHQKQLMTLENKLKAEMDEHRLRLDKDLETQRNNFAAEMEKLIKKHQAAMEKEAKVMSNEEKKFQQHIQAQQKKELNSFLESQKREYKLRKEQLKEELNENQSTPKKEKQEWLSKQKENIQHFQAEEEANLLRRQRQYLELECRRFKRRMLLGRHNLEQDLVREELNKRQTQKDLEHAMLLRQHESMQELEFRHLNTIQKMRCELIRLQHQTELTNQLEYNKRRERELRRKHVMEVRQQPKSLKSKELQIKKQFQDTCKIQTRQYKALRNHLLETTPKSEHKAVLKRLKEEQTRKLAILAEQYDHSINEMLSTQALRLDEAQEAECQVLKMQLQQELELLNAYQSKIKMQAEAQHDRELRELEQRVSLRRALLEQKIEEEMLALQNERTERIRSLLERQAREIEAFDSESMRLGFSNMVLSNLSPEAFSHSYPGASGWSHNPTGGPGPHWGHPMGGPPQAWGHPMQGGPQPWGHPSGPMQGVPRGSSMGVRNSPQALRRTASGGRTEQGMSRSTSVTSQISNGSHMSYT

Tyrosine-protein kinase HCK (Homo sapiens), sequence (P08631 2-526 limits assumed): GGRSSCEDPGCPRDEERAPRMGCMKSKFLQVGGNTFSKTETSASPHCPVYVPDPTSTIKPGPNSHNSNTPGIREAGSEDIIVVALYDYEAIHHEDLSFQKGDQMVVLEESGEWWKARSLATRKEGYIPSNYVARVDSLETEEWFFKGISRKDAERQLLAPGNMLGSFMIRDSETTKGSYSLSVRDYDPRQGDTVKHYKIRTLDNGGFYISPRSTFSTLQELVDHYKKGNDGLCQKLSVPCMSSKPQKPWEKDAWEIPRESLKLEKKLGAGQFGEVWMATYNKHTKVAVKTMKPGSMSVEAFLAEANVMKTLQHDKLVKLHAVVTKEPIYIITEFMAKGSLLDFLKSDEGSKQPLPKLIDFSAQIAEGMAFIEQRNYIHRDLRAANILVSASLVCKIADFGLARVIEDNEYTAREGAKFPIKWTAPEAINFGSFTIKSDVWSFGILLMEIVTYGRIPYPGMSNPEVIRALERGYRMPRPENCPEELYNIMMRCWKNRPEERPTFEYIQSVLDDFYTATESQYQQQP
Cyclin-dependent kinase 5/CDK5 activator 1 (Homo sapiens), sequence (Q00535 whole entry): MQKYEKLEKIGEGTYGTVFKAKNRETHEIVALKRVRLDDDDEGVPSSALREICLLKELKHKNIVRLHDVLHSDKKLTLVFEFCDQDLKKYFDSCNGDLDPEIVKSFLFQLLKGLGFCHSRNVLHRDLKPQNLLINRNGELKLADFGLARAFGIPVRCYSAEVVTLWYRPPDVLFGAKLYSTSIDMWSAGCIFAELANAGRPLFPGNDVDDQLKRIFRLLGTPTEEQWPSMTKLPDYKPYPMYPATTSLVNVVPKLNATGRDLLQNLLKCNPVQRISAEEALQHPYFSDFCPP
Cyclin-dependent kinase 5/CDK5 activator 1 (Homo sapiens), sequence (Q15078 99-307 partner limits assumed): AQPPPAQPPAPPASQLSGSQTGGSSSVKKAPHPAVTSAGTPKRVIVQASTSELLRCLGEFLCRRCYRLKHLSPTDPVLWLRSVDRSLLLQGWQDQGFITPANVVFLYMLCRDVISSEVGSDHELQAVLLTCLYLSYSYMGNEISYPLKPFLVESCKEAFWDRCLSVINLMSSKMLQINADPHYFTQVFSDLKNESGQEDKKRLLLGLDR
SRSF protein kinase 1 (Homo sapiens), sequence (Q96SB4 whole entry): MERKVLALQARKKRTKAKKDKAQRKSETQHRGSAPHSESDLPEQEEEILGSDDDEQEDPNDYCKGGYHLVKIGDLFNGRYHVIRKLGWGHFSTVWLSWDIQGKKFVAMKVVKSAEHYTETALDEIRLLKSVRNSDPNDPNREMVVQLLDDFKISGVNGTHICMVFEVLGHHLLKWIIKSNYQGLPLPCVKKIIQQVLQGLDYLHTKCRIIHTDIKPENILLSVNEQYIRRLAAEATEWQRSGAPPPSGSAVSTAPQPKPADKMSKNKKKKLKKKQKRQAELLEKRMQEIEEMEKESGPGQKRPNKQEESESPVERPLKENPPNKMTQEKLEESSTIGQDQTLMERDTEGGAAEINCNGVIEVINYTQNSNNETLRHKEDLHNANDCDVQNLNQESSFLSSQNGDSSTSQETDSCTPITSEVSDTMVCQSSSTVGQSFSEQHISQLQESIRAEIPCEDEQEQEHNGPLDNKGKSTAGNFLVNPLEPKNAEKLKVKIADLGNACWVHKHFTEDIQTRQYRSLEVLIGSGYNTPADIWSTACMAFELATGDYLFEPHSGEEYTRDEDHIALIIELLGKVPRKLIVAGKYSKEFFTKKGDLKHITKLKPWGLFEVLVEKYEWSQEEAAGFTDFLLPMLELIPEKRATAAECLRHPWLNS
G protein-coupled receptor kinase 6 (Homo sapiens), sequence (P43250 whole entry, looked up): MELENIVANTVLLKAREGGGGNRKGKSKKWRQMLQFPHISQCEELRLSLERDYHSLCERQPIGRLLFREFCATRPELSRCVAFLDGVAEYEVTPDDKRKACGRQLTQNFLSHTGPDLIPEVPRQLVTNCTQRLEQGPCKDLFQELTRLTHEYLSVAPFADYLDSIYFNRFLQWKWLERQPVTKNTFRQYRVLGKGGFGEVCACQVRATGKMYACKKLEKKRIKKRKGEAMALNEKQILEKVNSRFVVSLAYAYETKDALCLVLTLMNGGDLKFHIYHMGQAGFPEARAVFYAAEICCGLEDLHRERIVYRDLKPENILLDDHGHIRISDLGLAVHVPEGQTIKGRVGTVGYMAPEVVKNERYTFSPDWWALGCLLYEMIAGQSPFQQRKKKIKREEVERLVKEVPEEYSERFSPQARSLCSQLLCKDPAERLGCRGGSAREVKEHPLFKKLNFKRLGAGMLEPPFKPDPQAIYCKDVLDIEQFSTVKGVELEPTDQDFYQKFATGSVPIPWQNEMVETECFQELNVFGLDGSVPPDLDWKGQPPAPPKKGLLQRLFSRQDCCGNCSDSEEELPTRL

Row | inhibition [1] | inhibition [2] | inhibition [3] | inhibition [4] | inhibition [5] | inhibition [6] | inhibition [7] | inhibition [8] | Structure (SMILES)
1 | -8.62% | 10.3% | -6.12% | 3.48% | – | – | – | – | C[C@]1(O)C[C@@H](c2nc(-c3ccc4ccc(-c5ccccc5)nc4c3)c3c(N)nccn32)C1
2 | – | – | – | – | -1.49% | -2.25% | 2.17% | 4.21% | C[C@@]1(C(=O)Nc2ccc(F)nc2)CCCN1c1nc(Nc2cc(C3CC3)n[nH]2)c2cccn2n1
